For series [1], the system named is trypomastigote forms of T. cruzi (Y strain). The series is described as follows: Trypanocidal activity on bloodstream trypomastigotes. It counts as cell-based, Trypanosoma cruzi. As to the method: Bloodstream trypomastigote forms (BT) of the Y strain were obtained from infected albino Swiss mice at the peak of parasitemia, isolated by differential centrifugation and resuspended in DMEM to a parasite concentration of 10^7 cells/mL in the presence of 10% of mouse blood. This suspension (100 µL) was added in the same volume of 13 (a–d) and 14 (a–d) previously prepared at twice the desired final concentrations.

Series [2] concerns HepG2 cells. The series is described as follows: In vitro micronuclei assay, HepG2. Format: cell-based, human. The settings on record: HepG2; 3 h of exposure. The method, then:
(§1) Fresh HepG2 and CHO-K1 cells were seeded at the density of 1 × 10^5 cells/mL into 24-well plates (1 mL/per well). The compounds 13 (a–d) were then added to the medium to final concentrations of 500, 1000 and 2000 µM and incubation continued for 3 h or 24 h. DMSO 10% was used as the negative control, and, BaP (80 µM) for HepG2 and MMC (5 µM) for CHO-K1 were the positive controls. After exposure to the compounds, the cells were incubated for more than 24 h under growth conditions before quantification of the micronuclei and cytotoxicity. The cytogenetic studies were carried out in triplicate as described previously (see [51]). In order to determine the mitotic index and the number of cells with micronuclei, the medium was replaced by a cold methanol-glacial acetic acid (3:1) fixative for 30 min, and the cells then rinsed with distilled water for 2 min and air dried. The fixed cells were stained with 4,6-diamidino-2-phenylindole (DAPI) ([…]) dissolved in McIlvaine buffer (0.1 M citric acid plus 0.2 M Na2HPO4, pH 7.0) for 60 min, washed with McIlvaine buffer for 5 min, briefly rinsed with distilled water and mounted in glycerol. To determine the mitotic index and the number of cells with micronuclei, 1000 cells per well (3000 cells per concentration) were analyzed under a fluorescence microscope. The results for micronuclei were presented as the percentage of cells containing micronuclei in the 3000 cells/concentration group analyzed. Cells that glowed brightly and had homogenous nuclei were considered as having normal phenotypic morphology. Apoptotic nuclei were identified by the condensed chromatin at the periphery of the nuclear membrane or by fragmented nuclear body morphology. Necrotic cells presented chromatin forms with irregularly shaped aggregates, a pyknotic nucleus (shrunken and darkly stained) and cell membrane disruption, with cellular debris spilled into the extracellular milieu. Once again, 3000 cells were counted and the percentage of viable cells was evaluated, discounting apoptotic and necrotic cells. Statistical differences between the groups were analyzed by two-way ANOVA (p < 0.01) and Tukey’s post hoc test.

The subject of series [3] is Salmonella enterica serovar Typhimurium TA100. In words: Salmonella/microsome assay, TA100.
Series [4] is described as follows: in vitro. It counts as cell-based. The settings on record: mouse. As to the method: (§2) Cardiac cell cultures were incubated for 24 h at 37 °C with different concentrations of the compounds (up to 200 µM) diluted in DMEM (without phenol red). Their morphology and spontaneous contractibility were evaluated by light microscopy and then the cellular viability was determined by the PrestoBlue® assay. For this colorimetric bioassay, PrestoBlue® (Invitrogen, Waltham, MA, USA) was added to each well (using a 10:1 medium/dye), the plate was further incubated for 24 h followed by optical density (OD) measurement performed at 570 and 600 nm, as recommended by the manufacturer.

Series [5] is described as follows: in vitro. Format: cell-based. The settings on record: mouse. As to the method:
Primary cultures of cardiac cells (CC) were obtained as reported in [50]. The cultures were sustained in Dulbecco’s modified Eagle’s medium (DMEM) supplemented with 10% horse serum, 5% fetal bovine serum (FBS), 2.5 mM CaCl2, 1 mM L-glutamine, and 2% chicken embryo extract. Cell cultures were maintained at 37 °C in an atmosphere of 5% CO2, and assays were run at least three times in triplicate.
as §2
The source holds these as a separate data set.

In series [6] the test system is CHO-K1 and HepG2 cell lineages. Format: cell-based. The method, then:
as §1, with “Necrotic cells presented chromatin forms with irregularly shaped aggregates, a pyknotic nucleus (shrunken and darkly stained) and cell membrane disruption, with cellular debris spilled into the extracellular milieu.” left out

A short description of series [7]: in vitro. The settings on record: Salmonella enterica serovar Typhimurium, pH 7.4.
Series [8] relates to CHO-K1 cells. It counts as cell-based, Chinese Hamster. The method, then: as §1
Series [9] in a line: in vitro. It counts as cell-based. The settings on record: human. As to the method: Human hepatocellular carcinoma (HepG2) and Chinese Hamster Ovary (CHO-K1) cells obtained from the American Type Culture Collection (Manassas, VA, USA) were cultured in Eagle’s medium (MEM, Gibco®, Waltham, MA, USA) containing 10% fetal bovine serum (FBS) plus 100 µg/mL streptomycin and 100 µg/mL penicillin at 37 °C in a 5% CO2 atmosphere. Logarithmic-phase cells were used in all the experiments.
Fresh HepG2 and CHO-K1 cells were seeded at a density of 1 × 10^4/well. […] Briefly, after treatment, the culture medium was replaced by 90 μL fresh culture medium and 10 μL WST-1 reagent and incubated at 37 °C and 5% CO2 for 3 h. The absorbance was then measured at 440 nm according to the kit protocol.

For series [10], the system named is P. falciparum parasites (W2 clone) chloroquine-resistant. In words: Antiplasmodial activity, anti-HRPII assay. It counts as cell-based, Plasmodium falciparum. The source says:
P. falciparum W2 clone was maintained in continuous culture as previously described. […] Prior to testing, the ring-stage parasites were synchronized using sorbitol.
The test quantification was read at 450 nm on a spectrophotometer (SpectraMax340PC384, Molecular Devices Sunnyvale, CA, USA), and the drug activity was expressed as the half-maximal inhibitory concentration (EC50) compared to the drug-free controls using the curve-fitting software Origin 8.0 (OriginLab Corporation, Northampton, MA, USA).

Series [11] relates to S. typhimurium TA97, TA98, TA100, TA102 and TA104 strains. In words: Salmonella/microsome assay, overall outcome. The settings on record: all strains, −S9 and +S9; summarized outcome.
Protocol: The mutagenicity reverse mutation test was carried out to investigate the potential of 13 (a–d) to induce genetic mutation in S. typhimurium TA97, TA98, TA100, TA102 and TA104 strains. The test was carried out according to the pre-incubation method, both in the absence and presence of a metabolic activation system (4% S9 mix, Aroclor-pre-induced, from Moltox Inc., Boone, NC, USA). DMSO 10% served as the negative control while known mutagens were used as the positive control substances. […] A dose-finding test was carried out with and without the metabolic activation system (S9 mix) for each tester strain.
For the assays without metabolic activation, 0.5 mL of 0.1 mol/L sodium-phosphate buffer (pH 7.4) was added, and for the assays in the presence of metabolic activation, 0.5 mL S9 mix was mixed with 0.1 mL culture medium (2 × 10^8 cells/mL) plus 0.1 mL of each compound solutions. The mixtures were incubated in a shaker at 37 °C (pre-incubation). After 30 min pre-incubation under light protection, the mixture was added to and mixed with 2 mL top agar containing 0.05 mmol/L L-histidine and D-biotin for the S. typhimurium strains. Each of these was then spread on a minimum glucose agar plate. After the top agar solidified, the plates were incubated at 37 °C for 60–72 h. Each tester strain was assayed in triplicate, and the number of revertant colonies was counted for each tester strain and treatment group [58].

“Also recorded” adds a separate entry of the source. Bounds are passed on as bounds.

By EC50 is commonly meant the concentration at which the effect is half-maximal. For the compound `CC(=O)Nc1ccc(Br)cc1C(F)(F)C(=O)NCC[C@@H]1C[C@H](CC(=O)OC(C)(C)C)OC(C)(C)O1` [Compound 13d, tert-Butyl 2-((4R,6R)-6-(2-(2-(2-acetamido-5-bromophenyl)-2,2-difluoroacetamido)ethyl)-2,2-dimethyl-1,3-dioxan-4-yl)acetate], the values for the SI in series [1] (LC50 (cardiac cells)/EC50 (trypomastigotes)) and in series [10] (LC50 (HepG2)/EC50 (P. falciparum)) were greater than 21.6 and “Inactive”, respectively. For the same compound, the EC50 is 23.2 ± 3.13 µM in series [1] (Trypanosoma cruzi, bloodstream trypomastigotes, Y strain, 24 h at 37 °C) and greater than 89 µM in series [10] (Plasmodium falciparum, W2, 24 h, P. falciparum W2 clone, 24 h at 37 °C, read-out: EC50). Moreover, the “cytotoxicity (survival rate) in micronuclei assay” value in [2] was “non-cytotoxic”. Moreover, the “micronuclei formation (genotoxicity)” value in series [2] was “induced a significant micronuclei formation; also recorded: induced genotoxicity”; in series [8] it was “induced genotoxicity”. Also, the “revertant His+ colonies TA100” value in [3] (+S9, 3 µM) is listed as 156 ± 18; in series [3] (+S9, 15 µM) it was 166 ± 11; in series [3] (+S9, 30 µM), 173 ± 1; in series [3] (+S9, 150 µM), 174 ± 21; in [3] (+S9, 300 µM), 181 ± 15; in series [3] (+S9, 1500 µM), “Cytotoxic”. Moreover, the “revertant His+ colonies TA100” value in series [3] (−S9, 3 µM) was 99 ± 4; in series [3] (−S9, 15 µM), 96 ± 12; in series [3] (−S9, 30 µM) it was 93 ± 1; in series [3] (−S9, 150 µM), “Cytotoxic”. This compound also registered a CC50 at 96 h in series [4] of 114 ± 5.29 µM. Also, the CC50 at 24 h is greater than 500 µM in series [5] and greater than 1000 µM in series [9]. Also, the “Mammalian Cell Genotoxicity” value in [6] is recorded as “Yes”. The compound further had a CC50 in series [7] of 14.7 ± 1.8 µM. For the same compound, the “Antiplasmodial Activity” value in [10] (summarized outcome) is “No”. The “Bacterial Mutagenicity” value in series [11] is reported as “Yes”.

The values above are taken from paper PMC10301432, “Antiplasmodial, Trypanocidal, and Genotoxicity In Vitro Assessment of New Hybrid α,α-Difluorophenylacetamide-statin Derivatives” (Pharmaceuticals, 2023).
